According to US20230212222A1 (ANYGEN CO., LTD., priority 2020, published 2023):

How the values were obtained:
[1] = target: T1, GPR39 (Homo sapiens, UniProt O43194)
T1 sequence (O43194 1-453): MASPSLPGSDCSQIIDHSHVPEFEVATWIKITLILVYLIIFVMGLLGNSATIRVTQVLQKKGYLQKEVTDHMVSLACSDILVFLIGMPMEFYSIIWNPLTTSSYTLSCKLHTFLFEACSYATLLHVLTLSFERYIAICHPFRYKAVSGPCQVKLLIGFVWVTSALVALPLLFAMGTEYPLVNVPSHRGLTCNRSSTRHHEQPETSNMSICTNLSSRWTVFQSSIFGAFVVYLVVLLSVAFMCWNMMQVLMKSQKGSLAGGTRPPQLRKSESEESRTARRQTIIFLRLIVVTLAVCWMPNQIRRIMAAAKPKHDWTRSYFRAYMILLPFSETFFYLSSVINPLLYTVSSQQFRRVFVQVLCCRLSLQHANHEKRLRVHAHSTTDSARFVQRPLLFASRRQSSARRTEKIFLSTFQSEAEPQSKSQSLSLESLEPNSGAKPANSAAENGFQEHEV
Protocol: (§2) Specifically, the fibroblast cell line CV-1 (1×10^5 cells/ml, Korea Cell Line Bank) was cultured in a 96 well cell culture plate for 24 hours, and then treated with GPR39 inserted into adenovirus and SRE (serum response element) luciferase at 50 MOI (multiplicity of infection) and 25 MOI virus for 3 hours, respectively, and then cultured for 24 hours.

[2] = target: T1, GPR39; assay: luciferase assay system (SRE luciferase reporter gene) for GPR39 in CV-1 cells
Protocol: as §2

[3] = test system: HSL, ATGL and Perilipin A in 3T3-L1 cells; assay: mRNA expression of lipolysis signaling factors by RT-PCR in 3T3-L1 cells; assay type: cell-based; conditions: versus isoproterenol positive control
Protocol: (§1) In addition, the mRNA expression levels of HSL (hormone-sensitive lipase), ATGL (adipose triglyceride lipase) and Perilipin A, which are important factors for lipolysis signaling according to HKFY-34 treatment, were analyzed through RT-PCR (FIG. 79). […] In addition, it was confirmed that the mRNA expression of all factors was enhanced due to GPR39 through GPR39 siRNA (FIGS. 81 to 83).

[4] = test system: Irs2 and Ins2; assay: mRNA expression levels of Irs2 and Ins2 by RT-PCR; assay type: cell-based
Protocol: The mRNA expression levels of Irs2 and Ins2, which are important factors for proliferation and differentiation of pancreatic beta cells, were analyzed through RT-PCR (FIG. 77).

[5] = test system: INS-1, a rat insulinoma cell; assay: glucose-dependent insulin secretion ability test in INS-1 (rat insulin ELISA); assay type: cell-based
Protocol: In this regard, in order to confirm the effect of the HKFY derivative, a candidate GPR39 agonist, on insulin secretion ability, a glucose-dependent insulin secretion ability test was performed in INS-1 (Korea Cell Line Bank), a rat insulinoma cell (FIG. 75).
Specifically, when INS-1 cells were treated with 1 or 10 μM of HKFY-34 in 2.8 mM glucose similar to a physiological blood glucose level or 11.1 mM glucose, a high blood glucose level, the insulin secretion ability was confirmed using a rat insulin ELISA.
In addition, through GPR39 knock-down experiment using GPR39 siRNA, it was confirmed that HKFY-34 enhances insulin secretion through the GPR39 receptor.

[6] = test system: 3T3-L1 cells; assay: lipolytic ability (secreted glycerol) in 3T3-L1 cells; assay type: cell-based
Protocol: In addition, lipolytic ability according to the HKFY-34 treatment by concentration (100 nM, 500 nM, […] (FIG. 84). When the signal of lipolysis is transmitted, lipid droplet glycerol and free fatty acid in adipocytes are secreted as final products and come out of the cell. At this time, the degree of lipolysis can be confirmed by quantifying the secreted glycerol. Isoproterenol, a positive control group, is an agonist of β-adrenergic receptors and mainly promotes lipolytic ability in adipocytes.

[7] = test system: HSL, ATGL and Perilipin A in WAT cells; assay: mRNA expression of lipolysis signaling factors by RT-PCR in WAT; assay type: cell-based, mice; conditions: versus isoproterenol positive control
Protocol: as §1

[8] = test system: rat islet; assay: glucose-dependent insulin secretion in isolated rat islets (rat insulin ELISA); assay type: cell-based; conditions: 1 nM to 100 μM, 2.8 mM or 28 mM glucose
Protocol: In addition, the glucose-dependent insulin secretion ability of the HKFY derivative for rat islet was confirmed (FIG. 76).
Specifically, the pancreas was extracted from a 8-week-old SD rat (Damul Science), and islets were isolated. The isolated islets were treated with HKFY-34 at different concentrations (1 nM, 10 nM, 100 nM, 1 μM, 10 μM and 100 μM) in 2.8 mM or 28 mM glucose, and then the amount of the secreted insulin was measured using a rat insulin ELISA.

[9] = target: T1, GPR39; assay: calcium influx assay system (aequorin) in CV-1 cells; assay type: cell-based; parameters: host or cells: CV-1 fibroblast cell line, lipofectamine transfection; conditions: CV-1 cells transfected with human GPR39, Gαq, 6 hours
[10] = test system: C57BL6/J mice with high-fat feed (DIO); assay: insulin level in mouse model of obesity disease (DIO); assay type: in vivo; conditions: FIG. 90
Protocol: In addition, the glucose tolerance level and insulin level according to HKFY-34 treatment in a mouse model of obesity disease were analyzed (FIGS. 89 and 90).
Specifically, in the glucose tolerance level and insulin level analysis experiment, the experiment was performed by changing the mouse model of diabetes mellitus disease into a mouse model of obesity disease (DIO), in which obesity was induced by providing male C57BL6/J mice (6 to 7-week-old, Central Lab. Animal Inc.) with a high-fat feed (60% fat chow) for 5-6 weeks.

[11] = test system: db/db mice; assay: drop in blood glucose level in mouse model of diabetes mellitus disease; assay type: in vivo
Protocol: The drop in blood glucose level in a mouse model of diabetes mellitus disease according to the HKFY derivative treatment was analyzed (FIG. 92).
Specifically, HKFY-34 was subcutaneously administered at a concentration of 0.5, 1, 5 and 10 mg/kg, respectively, to male db/db mice (5 to 7-week-old), which is a mouse model of diabetes mellitus disease. After 0, 1, 2, 4, 6, 8, 12, 18 and 24 hours, blood was collected from the tail of the mice, and the blood glucose was measured with a blood glucose meter (acc-check, Roche, Germany) to confirm the anti-diabetic effect.

What does the source list for CCCCCCCC(=O)NCCCC[C@H](NC(=O)[C@@H](N)Cc1cn(C(c2ccccc2)c2ccccc2)cn1)C(=O)N[C@H](Cc1ccc(C)cc1)C(=O)N[C@@H](Cc1ccc(O)cc1)C(=O)O [HKFY-34, ((R)-2-((S)-2-((S)-2-amino-3-(1-benzhydryl-1H-imidazol-4-yl)propanamido)-6-octanamidohexanamido)-3-(p-tolyl)propanoyl)-L-tyrosine]?
ECmax (-fold induction over basal) [1]: 22.39 ± 4.59 -fold induction over basal; Reporter gene assay ECmax (-fold induction over basal) [1]: 22.39 ± 4.59 -fold induction over basal; EC50 ([2]; EC50, CV-1 cells, GPR39 and SRE luciferase adenovirus, treated 6 hours, luminometer): 7 ± 1 nM; binding capacity and activity to the GPR39 receptor (in words) ([2]; FIG. 73 and Table 4, luciferase and calcium influx assay): excellent; EC50 ([2]; Reporter gene assay EC50, Table 4, luciferase assay system): 6.7 ± 0.7 nM; ECmax value (in words) ([2]; comment on Table 3): high ECmax value; activity level for GPR39 (in words) ([2]; comment on Table 3): higher activity level than other HJKFY derivatives; activity level for GPR39 (in words) ([2]; comment on Table 3, listed as HIKFY-34): most excellent activity; mRNA expression of ATGL [3]: increased to a degree similar to that of isoproterenol; mRNA expression of HSL [3]: increased to a degree similar to that of isoproterenol; mRNA expression of Perilipin A [3]: increased to a degree similar to that of isoproterenol; mRNA expression of Ins2 ([4]; GPR39 siRNA treated group): hardly achieved; mRNA expression of Irs2 ([4]; GPR39 siRNA treated group): hardly achieved; mRNA expression level of Ins2 ([4]; RT-PCR, FIG. 77): increased; mRNA expression level of Irs2 ([4]; RT-PCR, FIG. 77): increased; insulin secretion ([5]; INS-1, high blood glucose level (11.1 mM glucose), 1 or 10 μM): enhanced at all treatment concentrations; change in insulin secretion level ([5]; INS-1, low blood glucose level (2.8 mM glucose), 1 or 10 μM): insignificant; insulin secretion ability ([5]; cells treated with GPR39 siRNA compared to scrambled siRNA, 11.1 mM glucose): not increased; lipolytic ability ([6]; HKFY-34 concentration 10 μM or higher): significantly increased; lipolytic ability ([6]; by concentration, FIG. 84): increased in a concentration dependent manner; mRNA expression of ATGL [7]: increased to a degree similar to that of isoproterenol; mRNA expression of HSL [7]: increased to a degree similar to that of isoproterenol; mRNA expression of Perilipin A [7]: increased to a degree similar to that of isoproterenol; insulin secretion ability [8]: concentration dependent (dose-dependent) manner; Ca2+ influx assay ECmax (-fold induction over basal) [9]: 2.4 ± 4.59 -fold induction over basal; EC50 ([9]; read-out: Ca2+ influx assay EC50): 2.7 ± 0.5 nM; insulin secretion level [10]: increased; effect of drop in blood glucose level ([11]; db/db mice, 0.5, 1, 5 and 10 mg/kg subcutaneously, 0 to 24 hours): exhibited in a concentration-dependent manner; effect of drop in blood glucose ([11]; db/db mice, 5 and 10 mg/kg): significantly increased
